Reference: publication PMC5459845, “Expression and functional analysis of the lysine decarboxylase and copper amine oxidase genes from the endophytic fungus Colletotrichum gloeosporioides ES026” (Scientific Reports, 2017)

Experiments:
CgLDC = target: T1, CgLDC (Colletotrichum gloeosporioides, UniProt A0A1X9J191); assay: LC-MS detection of cadaverine (m/z […]); assay type: biochemical; settings: pyridoxal phosphate 40 µg, potassium phosphate pH 8.0, 37 °C, 45 min; boiled enzyme as negative control
T1 construct: 256 residues, 28 kDa, cDNA 769 bp
T1 sequence (A0A1X9J191 62-294): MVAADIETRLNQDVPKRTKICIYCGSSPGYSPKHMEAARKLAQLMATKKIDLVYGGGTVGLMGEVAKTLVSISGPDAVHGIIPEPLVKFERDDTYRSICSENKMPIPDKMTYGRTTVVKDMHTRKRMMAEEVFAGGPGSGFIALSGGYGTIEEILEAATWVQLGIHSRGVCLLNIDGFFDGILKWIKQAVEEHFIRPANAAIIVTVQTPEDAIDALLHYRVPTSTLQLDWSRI

CgCAO = target: T2, CgCAO (Colletotrichum gloeosporioides, UniProt A0A191JKR0); assay: LC-MS detection of delta1-piperideine (m/z […]); assay type: biochemical; settings: 1 mM cadaverine, 50 mM Tris-HCl pH 8.0, 25 °C, 16 h; boiled enzyme as negative control
T2 construct: 672 residues, 76 kDa, cDNA 2072 bp
T2 sequence (A0A191JKR0 1-684): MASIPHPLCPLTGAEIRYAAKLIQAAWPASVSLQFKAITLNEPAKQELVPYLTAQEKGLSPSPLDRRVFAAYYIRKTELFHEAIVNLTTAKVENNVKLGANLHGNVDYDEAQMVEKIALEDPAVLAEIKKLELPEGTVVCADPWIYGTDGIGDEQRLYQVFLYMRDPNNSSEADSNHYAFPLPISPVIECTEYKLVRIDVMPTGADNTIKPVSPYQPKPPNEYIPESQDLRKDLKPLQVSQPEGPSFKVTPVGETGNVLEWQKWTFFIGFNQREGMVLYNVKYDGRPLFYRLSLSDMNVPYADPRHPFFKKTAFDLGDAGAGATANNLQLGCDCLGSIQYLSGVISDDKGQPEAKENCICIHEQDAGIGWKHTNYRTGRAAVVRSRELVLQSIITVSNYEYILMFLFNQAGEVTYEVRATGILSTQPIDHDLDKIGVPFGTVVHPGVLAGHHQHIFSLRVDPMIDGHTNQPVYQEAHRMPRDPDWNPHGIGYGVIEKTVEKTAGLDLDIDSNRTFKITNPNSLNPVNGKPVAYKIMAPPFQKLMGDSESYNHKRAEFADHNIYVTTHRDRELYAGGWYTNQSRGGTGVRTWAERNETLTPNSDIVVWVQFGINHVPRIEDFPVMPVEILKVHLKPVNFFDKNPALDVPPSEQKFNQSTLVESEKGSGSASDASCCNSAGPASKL

| Compound | LC-MS detection of cadaverine (m/z 103) (CgLDC) | LC-MS detection of delta1-piperideine (m/z 84) (CgCAO) |
| --- | --- | --- |
| NCCCC[C@H](N)C(=O)O [L-lysine] | CgLDC catalyzed the conversion of L-lysine to cadaverine | – |
| NCCCCCN [cadaverine] | – | CgCAO converted cadaverine to 5-aminopentanal |
